Results on 9 compounds are retold here after paper PMC3353318 (Bioorganic & Medicinal Chemistry, 2011).

The target of one data set is NMDA receptors. Format: cell-based, rat.
The conditions of data set [1]: cited from earlier work.
In data set [2] the test system is bloodstream form T. brucei (strain 427). Format: cell-based, Trypanosoma brucei.
Data set [3] has as its system vesicular stomatitis virus (VSV) in HeLa cells. As to conditions: for EC50: read-out: EC50 (50% antiviral effective concentration) against VSV.
The next data set deals with VSV in HEL cells. Format: cell-based, vesicular stomatitis virus.
The test system of data set [4] is influenza A/Puerto Rico/8/34 (H1N1). Kind of data set: Influenza virus assay, A/H1N1. The format is cell-based. Conditions: read-out: antiviral EC50 against influenza A/H1N1 subtype.
Setting [5] is: read-out: IC50, Glutamate (100 μM).

Several values for one entry are separate records, joined by “and”; a condition that tells them apart may be missing. Identical values can stand only once. Entries after “also recorded” stand apart in the source; their conditions may differ. Like-named read-outs stand apart in the source and are kept apart here. Where only a bound is given, the exact number is not on record here.

“6,7,8,9,10,11-Hexahydro-9-methyl-5,7:9,11-dimethano-5H-benzocyclononen-7-amine hydrochloride [Compound 3]”: the IC50 turned out to be 22 ± 3.9 µM on NMDA receptors (setting [5]) and 13.6 ± 3.4 µM at NMDA receptors (read-out: IC50, NMDA (100 μM)).
As for `c1ccc(CNC23OC4C5C6CC(C7C6C4C72)C53)cc1` (stereo not shown) [NGP1-01], the “stability in aqueous medium (in words)” value in data set [1] is on record as “decomposes easily in aqueous medium”.
In the case of “N,N-Dimethyl-6,7,8,9,10,11-hexahydro-9-methyl-5,7:9,11-dimethano-5H-benzocyclononen-7-amine hydrochloride [Compound 11]”, the IC50 on NMDA receptors (setting [5]) is 87 ± 28 µM; on NMDA receptors (read-out: IC50, NMDA (100 μM)) it was 12 µM and 11.8 µM. The “inhibitory activity against cultured bloodstream form T. brucei (in words)” value in data set [2] (at 5 μg mL^−1 (15–20 μM)) is reported as “little or no inhibitory activity”.
Take “N,N-dipropargyl-6,7,8,9,10,11-hexahydro-9-methyl-5,7:9,11-dimethano-5H-benzocyclononen-7-amine hydrochloride [Compound 10]”: in data set [3], the “selectivity index (ratio of cytotoxic to antiviral concentration)” value is on record as 25 and the EC50 turned out to be 4 µM. Besides, the “activity against VSV in HEL cells (in words)” value with VSV in HEL cells was “not active”.
Turning to “N-(6,7,8,9,10,11-hexahydro-9-methyl-5,7:9,11-dimethano-5H-benzocyclononen-7-yl)piperidine hydrochloride [Compound 12]”, in data set [3], the EC50 is 54 µM. The IC50 at NMDA receptors (setting [5]) was more than 500 µM. In addition, the “activity against VSV in HEL cells (in words)” value in the data set on VSV in HEL cells is recorded as “not active”.
Consider “N-Benzyl-6,7,8,9,10,11-hexahydro-9-methyl-5,7:9,11-dimethano-5H-benzocyclononen-7-amine hydrochloride [Compound 6]”, for which the “NMDA receptor antagonist activity (in words)” value in the data set on NMDA receptors is listed as “devoid of activity; also recorded: not active as NMDA receptor antagonist”. Moreover, the IC50 in data set [2] (read-out: IC50 against cultured bloodstream form T. brucei) was 3 ± 0.32 µM. In data set [2] (read-out: IC90 against cultured bloodstream form T. brucei), the IC90 was determined as 6.55 ± 0.32 µM. Moreover, the EC50 in data set [4] came to 10 µM.
With “N-Benzyl-N-methyl-6,7,8,9,10,11-hexahydro-9-methyl-5,7:9,11-dimethano-5H-benzocyclononen-7-amine hydrochloride [Compound 7]”, the “NMDA receptor antagonist activity (in words)” value with NMDA receptors is “devoid of activity”.
On to “N-Methyl-6,7,8,9,10,11-hexahydro-9-methyl-5,7:9,11-dimethano-5H-benzocyclononen-7-amine hydrochloride [Compound 8]”, for which the IC50 at NMDA receptors (setting [5]) was 455 ± 216 µM; at NMDA receptors (read-out: IC50, NMDA (100 μM)) it was 19.4 ± 3.3 µM.
For “N-Propargyl-6,7,8,9,10,11-hexahydro-9-methyl-5,7:9,11-dimethano-5H-benzocyclononen-7-amine hydrochloride [Compound 9]”, the IC50 at NMDA receptors (setting [5]) is more than 500 µM; at NMDA receptors (read-out: IC50, NMDA (100 μM)), 27.5 ± 13.2 µM. In data set [2] (versus rimantadine), the “IC90 lower than that of rimantadine (fold)” value was “more than 4 times”.
